Measurements: patent EP3442594B1, “BLOCK COPOLYMER FOR […] RESISTANCE OF TUMOURS TO CHEMOTHERAPY, ITS POLYMER-DRUG CONJUGATE, PHARMACEUTICAL COMPOSITION CONTAINING THEM, METHOD OF PREPARATION AND USE THEREOF” (Ustav makromolekularni chemie AV CR, v.v.i., priority 2016, dated 2017)
Values after ≈ are worked out from the molar mass of the structure shown. Values joined by “and” are separate entries in the source; they are usually repeats but may differ in a detail not shown here. Equal entries are not always repeated. Where two headings read alike, the source gives them in different places.

What was measured:
NB3/DOX = experiment: IC50 of drugs with/without block copolymer, AlamarBlue method; assay type: cell-based; conditions: cells pre-incubated 1 hour with/without block copolymer at 250 µg/mL
Method: (§1) In in vitro experiments the cells were first incubated for 1 hour with/without a diblock or triblock copolymer at a concentration 250 µg/mL and thereto were added the above mentioned drugs in a concentration series. After 72 hours of incubation the metabolic activity of cells was determined using the AlamarBlue method and from it the IC50 of individual drugs. An experiment was performed with non-degradable diblock polymers PHPMA-PPO (Example 20) and triblock polymers (PHPMA)2-PPO (Example 21) as a control.

NB4/DOX = experiment: as above; assay type: cell-based; conditions: cells pre-incubated 1 hour with/without block copolymer at 250 µg/mL
Method: as §1

[1] = tested on: 4T1 - mammary carcinoma cell line; experiment: Cytostatic activity, 3H-thymidine incorporation; assay type: cell-based, murine; conditions: Mus musculus; 4T1, 72 hours
Method: (§2) These were murine tumour cell lines (CT26 - colon carcinoma cell line, 4T1 - mammary carcinoma cell line, both originating from the BALB/c inbred strain of mice, followed by EL4.IL-2-line of T-cell lymphoma originating from the C57BL/6 inbred strain of mice) and FaDu - a human line of squamous cell carcinoma of the head and neck. […] The cell proliferation was then determined using the standard method of incorporating ^3H-thymidine which was added for the last 6 hours of culture. Subsequently, the cultures were processed using the Tomtec Mach III harvester and, after drying, the radioactivity of samples obtained was measured by the beta-scintillation counter Microbeta Trilux (Wallac) using a solid scintillant (MeltiLex; Perkin Elmer). […] The activity of conjugates was determined by 3H-thymidine incorporation after 72 hours of incubation of cells with various concentrations of drugs. The IC50 values are given in ng of doxorubicin/mL and were calculated as a mean of several independent determinations.

[2] = tested on: CT26 - colon carcinoma cell line; experiment: Cytostatic activity, 3H-thymidine incorporation; assay type: cell-based, murine
Method: as §2

[3] = tested on: EL4.IL-2-line of T-cell lymphoma; experiment: Cytostatic activity, 3H-thymidine incorporation; assay type: cell-based, murine; conditions: Mus musculus, EL4.IL-2, 72 hours
Method: as §2

[4] = tested on: FaDu - a human line of squamous cell carcinoma of the head and neck; experiment: Cytostatic activity, 3H-thymidine incorporation; assay type: cell-based; conditions: 72 hours
Method: as §2

[5] = tested on: murine T-cell lymphoma EL4; experiment: In vivo antitumour effect in the treatment of EL4 lymphoma; set-up: species or system C57BL/6 mice
Method: (§3) The in vivo antitumour effect of micellar diblock polymer conjugate of Example 28 carrying doxorubicin (DOX-DB) was studied on a model of murine T-cell lymphoma EL4 in the C57BL/6 inbred strains of mice. The conjugate was administered to mice intravenously (i.v.) in a single dose equivalent to 7.5 mg of doxorubicin/kg. The drug was injected 8 days after subcutaneous administration of 1 x 10^5 EL4 tumour cells, at a time when tumours are developed and the tumour bed size is about 6-8 mm in diameter. […] Further, the free doxorubicin (DOX) was used for treatment, injected at a total dose of 10 mg/kg, which, due to the different pharmacokinetics of a low molecular weight drug and the associated danger of high systemic toxicity, was injected in two partial intravenous doses on the 8th and 12th day after transplantation of tumour cells (each dose of 5 mg of doxorubicin).
(§4) Days mean the death of animals after administration of tumour cells (1 x 10^5 cells EL4 s.c. on day 0), LTS ("long term survivor") means long-term surviving mice without evidence of tumour (at least until day 70 after administration of tumour cells). The last line contains information about the median survival in groups.

[6] = tested on: murine T-cell lymphoma EL4; assay type: in vivo
Method: as §3, §4

[7] = Release of docetaxel or its derivative from polymer conjugates in phosphate buffers (HPLC); assay type: physicochemical; conditions: pH 7.4 compared with pH 5.0, 37°C, conjugate 5 mg/mL
Method: At predetermined time intervals 200 µL of incubation solution was collected and after the extraction of released drugs and derivatives thereof into chloroform their amounts were determined using an HPLC system (Shimadzu HPLC system equipped with a column with a reverse phase Chromolith Performance RP-18e (100 x 4.6 mm) and UV-VIS detector Shimadzu SPD-10AVvp (230 nm), eluent water-acetonitrile with gradient from 50 to 100 vol% of acetonitrile, flow rate of 0.5 mL x min^-1).

[8] = read-out: IC50 after 72 hours of incubation

COc1cccc2c1C(=O)c1c(O)c3c(c(O)c1C2=O)C[C@@](O)(C(=O)CO)C[C@@H]3O[C@H]1C[C@H](N)[C@H](O)[C@H](C)O1 [DOX, doxorubicin]
IC50 after 72 hours of incubation (NB3/DOX): 0.168 ± 0.005 µg/mL
IC50 (NB3/DOX; [8]): 0.215 ± 0.004 µg/mL (≈ 0.396 µM)
IC50 (NB4/DOX; [8]): 2.61 ± 0.17 µg/mL (≈ 4.8 µM)
IC50 [1]: 0.0143 µg/mL (≈ 0.0263 µM)
IC50 ([2]; Mus musculus, CT26, 72 hours): 0.0425 µg/mL (≈ 0.0782 µM)
IC50 [3]: 0.0122 µg/mL (≈ 0.0224 µM)
IC50 [4]: 0.0048 µg/mL (≈ 0.00883 µM)
complete cure ([5]; 2 x 5 mg DOX/kg i.v.): none
median survival ([5]; 2 x 5 mg DOX/kg i.v.): 40.5 days
tumour growth in comparison to untreated controls ([5]; 2 x 5 mg DOX/kg i.v.): the average tumour growth was slower than in the group of untreated mice, but showed a steady progression
Survival: day of death of individual animals after administration of tumour cells ([5]; 2 x 5 mg DOX/kg i.v. on days 8 and 12): 35 Days and 38 Days and 39 Days and 42 Days and 53 Days (2×)

[raft-poly(HPMA-co-MA-AH-NHN=DOX)]-GFLG-PPO-NH2 [DB-DOX]
IC50 after 72 hours of incubation (NB3/DOX): 0.919 ± 0.020 µg/mL
IC50 after 72 hours of incubation (NB4/DOX): 7.07 ± 0.11 µg/mL
decrease of the cytostatic effect of doxorubicin by binding the drug to a diblock carrier [2]: 2.6 times
first mouse with complete tumour regression, time after drug administration ([6]; 1 x 7.5 mg DOX eq./kg): eighth day
median survival ([6]; 1 x 7.5 mg DOX eq./kg i.v.): 47.5 days
tumour growth in comparison to untreated controls ([6]; 1 x 7.5 mg DOX eq./kg i.v.): tumour growth stagnation within three days and a significant reduction in growth between the third and sixth day after administration of the drug
Survival: day of death of individual animals after administration of tumour cells ([6]; 1 x 7.5 mg DOX eq./kg i.v. on day 8): 37 Days and 39 Days and 42 Days (2×) and 60 Days and LTS (LTS ("long term survivor") means long-term surviving mice without evidence of tumour (at least until day 70 after administration of tumour cells)) (3×)
complete cure (share of subjects) ([6]; 1 x 7.5 mg DOX eq./kg i.v., 8 mice): 37.5%
mice without apparent tumour at the place of administration ([6]; 13 days after drug administration, 1 x 7.5 mg DOX eq./kg): 4 mice (out of 8)
resistance against tumour after retransplantation of cured mice (LTS) ([6]; retransplanted 119 days after the first tumour, no treatment): of these three mice two were resistant

[raft-poly(HPMA-co-MA-AH-NHN=DTX-LEV)]-GFLG-PPO-NH2 [Example 28B]
release of drug DTX (or its derivative) [7]: released significantly slower
